This note sets out measurements from patent publication US4898858A, “Cephalosporin derivatives and antibiotics containing the same” (Meiji Seika Kaisha Ltd., priority 1985, dated 1990).

Assay [1] deals with Pseudomonas aeruginosa MB-3833. Kind of assay: minimum growth-inhibitory concentration (MIC) in vitro. It is filed as cell-based. As to conditions: MB3833.
In assay [2] the test system is Proteus rettgeri GN-624. The description is as above. The assay is classed as cell-based. The following applies: Providencia rettgeri, GN624.
Assay [3] deals with Serratia marcescens GN-629. The assay is described as above. The assay is classed as cell-based. As to conditions: GN629.
Assay [4] relates to Serratia marcescens GN-10857. The description is as above. It is filed as cell-based. The following applies: GN10857.
Assay [5] has as its system Escherichia coli No.29. The description is as above. The assay is classed as cell-based.
The test system of assay [6] is Streptocuccus faecalis W-75. The assay is described as above. It is filed as cell-based.
The test system of assay [7] is Enterobacter Cloacae G-0005. The assay is described as above. It is filed as cell-based.
Assay [8] relates to Proteus rettgeri J-0026. Described as above. It is filed as cell-based. As to conditions: Providencia rettgeri, J0026.
For assay [9], the system named is Pseudomonas aeruginosa E-2. The description is as above. The assay is classed as cell-based. As to conditions: E2.
Assay [10] deals with Escherichia coli NIHJ JC-2. The assay is described as above. The assay is classed as cell-based.
The test system of assay [11] is Pseudomonas aeruginosa GN-10362. The description is as above. The following applies: GN10362. It is filed as cell-based.
Assay [12] deals with Proteus vulgais GN-76/C-1. Described as above. As to conditions: for MIC: Proteus vulgaris, GN76, read-out: MIC-value.
Assay [13] has as its system Klebsiella pneumoniae GN-69. Described as above. The assay is classed as cell-based.
Assay [14] has as its system Staphylococcus aureus 606 E-25. The description is as above. The assay is classed as cell-based. As to conditions: 606E25.
The subject of assay [15] is Salmonella typhimurium LT-2. The description is as above. The following applies: Salmonella enterica. It is filed as cell-based.
Assay [16] relates to Proteus vulgais GN-76. The description is as above. The assay is classed as cell-based.
Assay [17] concerns Staphylococcus aureus 209P JC-1. The description is as above. The assay is classed as cell-based.
Assay [18] has as its system Staphylococcus aureus 606. The description is as above. The assay is classed as cell-based.
Assay [19] relates to Proteus morganii 1510. The description is as above. The assay is classed as cell-based. As to conditions: Morganella morganii.
Assay [20] deals with Klebsiella pneumoniae GN-118. Described as above. As to conditions: GN118. It is filed as cell-based.
The test system of assay [21] is Enterobacter Cloacae G-0008. The assay is described as above. The assay is classed as cell-based.
Assay [22] has as its system Salmonella enteritidis No.11. Described as above. The assay is classed as cell-based. The following applies: Salmonella enterica.
The test system of assay [23] is Escherichia coli ML1410. Described as above. The assay is classed as cell-based.
Assay [24] relates to Pseudomonas aeniginosa. Kind of assay: MIC, comparison of the compounds of the present invention and the relevant compounds. The following applies: Table 2, strain not given, by substituent B. It is filed as cell-based.
Where [25] appears, read: NIHJJC2, Escherichia coli NIHJ JC-2, in vitro, read-out: MIC-value.
Where [26] appears, read: GN69, Klebsiella pneumoniae GN-69, in vitro, read-out: MIC-value.

≈ marks a conversion by molar mass, not a printed value. Like-named read-outs stand apart in the source and are kept apart here.

For the molecule `Nc1nc(/C(=N/OC(CF)C(=O)O)C(=O)N[C@@H]2C(=O)N3C(C(=O)[O-])=C(CSc4cc[n+](CCF)cc4)CS[C@H]23)cs1` (some centres unmarked) [Example 6], the MIC (in general, the lowest concentration found to suppress growth) in [1] is 1.56 µg/mL (≈ 2.48 µM); in assay [2] it was below 0.025 µg/mL; in [3], 0.2 µg/mL (≈ 0.318 µM); in [4], 1.56 µg/mL (≈ 2.48 µM); in [5] it was 0.1 µg/mL (≈ 0.159 µM); in [6] it was 3.13 µg/mL (≈ 4.98 µM). Moreover, the MIC in assay [7] came to 0.05 µg/mL (≈ 0.0795 µM); in assay [8], 0.2 µg/mL (≈ 0.318 µM); in assay [9], 1.56 µg/mL (≈ 2.48 µM); in assay [10] (Escherichia coli, NIHJJC2, read-out: MIC-value) it was 0.05 µg/mL (≈ 0.0795 µM); in assay [11], 3.13 µg/mL (≈ 4.98 µM); in assay [12], 0.1 µg/mL (≈ 0.159 µM). Besides, the MIC in assay [13] (Klebsiella pneumoniae, GN69, read-out: MIC-value) is below 0.025 µg/mL; in assay [14], 3.13 µg/mL (≈ 4.98 µM); in [15], below 0.025 µg/mL; in assay [16], 0.05 µg/mL (≈ 0.0795 µM); in assay [17], 1.56 µg/mL (≈ 2.48 µM); in assay [18] it was 3.13 µg/mL (≈ 4.98 µM). Further, the MIC was 0.78 µg/mL (≈ 1.24 µM) in assay [19]; below 0.025 µg/mL in [20]; 0.1 µg/mL (≈ 0.159 µM) in [21]; 0.05 µg/mL (≈ 0.0795 µM) in assay [22]; 0.1 µg/mL (≈ 0.159 µM) in assay [23].
For the molecule `C[C@H](O/N=C(\C(=O)N[C@@H]1C(=O)N2C(C(=O)[O-])=C(CSc3cc[n+](C)cc3)CS[C@H]12)c1csc(N)n1)C(=O)O` [Example 7, (6R,7R)-7-[(Z)-2-(2-Aminothiazol-4-yl)-2-{(1S)-carboxyethoxyimino}acetamid]-3-(1-methylpyridinium-4-ylthiomethyl)-ceph-3-em-4-carboxylate], the MIC in [1] was 0.78 µg/mL (≈ 1.35 µM); in assay [2], below 0.025 µg/mL; in assay [3], 0.1 µg/mL (≈ 0.173 µM); in assay [4], 0.39 µg/mL (≈ 0.674 µM); in assay [5] it was 0.1 µg/mL (≈ 0.173 µM); in assay [6], 1.56 µg/mL (≈ 2.7 µM). Moreover, the MIC was determined as 0.05 µg/mL (≈ 0.0864 µM) in assay [7]; 0.1 µg/mL (≈ 0.173 µM) in [8]; 0.78 µg/mL (≈ 1.35 µM) in [9]; 0.1 µg/mL (≈ 0.173 µM) in assay [10] (setting [25]); 0.78 µg/mL (≈ 1.35 µM) in assay [11]; 0.05 µg/mL (≈ 0.0864 µM) in [12]. Besides, the MIC was below 0.025 µg/mL in [13] (setting [26]); 3.13 µg/mL (≈ 5.41 µM) in [14]; below 0.025 µg/mL in [15]; 0.025 µg/mL (≈ 0.0432 µM) in assay [16]; 1.56 µg/mL (≈ 2.7 µM) in assay [17]; 3.13 µg/mL (≈ 5.41 µM) in [18]. For the same molecule, the MIC in [19] is 1.56 µg/mL (≈ 2.7 µM); in assay [20] it was below 0.025 µg/mL; in assay [21], 0.1 µg/mL (≈ 0.173 µM); in assay [22], below 0.025 µg/mL; in assay [23], 0.1 µg/mL (≈ 0.173 µM).
`CC[n+]1ccc(SCC2=C(C(=O)[O-])N3C(=O)[C@@H](NC(=O)/C(=N\O[C@H](C)C(=O)O)c4csc(N)n4)[C@H]3SC2)cc1` [Example 9, (6R,7R)-7-[(Z)-2-(2-Aminothiazol-4-yl)-2-{(1R)-carboxyethoxyimino}acetamid]-3-(1-ethylpyridinium-4-ylthiomethyl)-ceph-3-em-4-carboxylate]: the minimal inhibitory concentration (MIC) in [1] was 3.13 µg/mL (≈ 5.28 µM); in assay [2], below 0.025 µg/mL; in [3] it was 0.39 µg/mL (≈ 0.658 µM); in [4], 1.56 µg/mL (≈ 2.63 µM); in [5] it was 0.1 µg/mL (≈ 0.169 µM); in [6], 6.25 µg/mL (≈ 10.5 µM). The minimum inhibitory concentration (MIC) in assay [7] is 0.2 µg/mL (≈ 0.337 µM); in [8], 0.2 µg/mL (≈ 0.337 µM); in [9], 1.56 µg/mL (≈ 2.63 µM); in [10] (setting [25]), 0.1 µg/mL (≈ 0.169 µM); in [11], 3.13 µg/mL (≈ 5.28 µM); in assay [12], 0.1 µg/mL (≈ 0.169 µM). Moreover, the MIC was 0.05 µg/mL (≈ 0.0844 µM) in assay [13] (setting [26]); 6.25 µg/mL (≈ 10.5 µM) in [14]; 0.05 µg/mL (≈ 0.0844 µM) in [15]; 0.1 µg/mL (≈ 0.169 µM) in assay [16]; 3.13 µg/mL (≈ 5.28 µM) in [17]; 6.25 µg/mL (≈ 10.5 µM) in assay [18]. Further, the minimal inhibitory concentration (MIC) was 0.78 µg/mL (≈ 1.32 µM) in [19]; 0.05 µg/mL (≈ 0.0844 µM) in assay [20]; 0.1 µg/mL (≈ 0.169 µM) in assay [21]; below 0.025 µg/mL in [22]; 0.1 µg/mL (≈ 0.169 µM) in [23].
`C[C@H](O/N=C(\C(=O)N[C@@H]1C(=O)N2C(C(=O)[O-])=C(CSc3cc[n+](C)cc3)CS[C@H]12)c1csc(N)n1)C(=O)O` [drawing 15] returned an MIC-value in [12] (Table 2, Proteus vulgaris GN76/C-1, by substituent B) of 0.05 µg/mL (≈ 0.0864 µM). The molecule further yielded an MIC in assay [24] of 0.78 µg/mL (≈ 1.35 µM).
